In patent US10359432B2, “Methods for detecting antibodies” (The Regents of the University of California, priority 2008, dated 2019):
Each block holds one substance with its values, some of them ahead of it. Bridge positions count the residues as written; N and C are the ends. Ends that are not written are not given here. * marks the point of attachment. Biotin = O=C1N[C@H]2[C@H](CS[C@H]2CCCCC(=O)*)N1

Legend:
primary CLL cells = assay: Peptide inhibition of CLL cell staining by labeled mAb, flow cytometry; type: cell-based, human; details: for Staining of primary CLL cells by fluorescently labeled mAb: no peptide
Method: The shaded histogram represents staining with labeled human IgG.
After informed consent was obtained per the Declaration of Helsinki, blood samples were collected from patients at the University of California, San Diego (UCSD) Medical Center who satisfied diagnosis and immunophenotypic criteria for common B-cell CLL.
Subsequently, cells were washed two times with 100 μl FACS-wash (PBS, 5% FCS and 0.5% sodium azide) and fixed with 100 μl with 3.7% formaldehyde in PBS.
There was no effect on the binding activity of the other mAb (data not shown).

alemtuzumab = assay: Antibody-peptide binding kinetics, SkiPro interferometer, whole mAb; details: whole molecule alemtuzumab
Excerpt: (§1) FIGS. 7A to 7D include graphical illustrations showing the kinetics of antibody-peptide binding. Biotinylated peptides were captured onto streptavidin coated nanoporous surfaces. The binding of the mAb or their Fab fragments was monitored on a SkiPro™ interferometer. The binding curves were globally fit to a single binding site association/dissociation model to derive Kon, Koff, and Kd values.
(§2) Kinetics of antibody-peptide binding were studied using SkiPro™ Biomolecular Interaction technology platform on a SkiPro™ interferometer equipped with a 2-channel flow cell and an autosampler (Silicon Kinetics Inc. San Diego, Calif.). All reagents were purchased from Sigma-Aldrich (St. Louis, Mo.). All peptides were incubated with oxidizing agent Sodium Tetrathionate at 10 mM in PBS for 1 hour immediately before binding experiments. Biotinylated peptides were diluted to 5 μM in PBS/0.05% BSA and immobilized on Streptavidin-coated SkiSensor™ Biochips for 10 minutes at 4 μl/min flow rate. […] Concentration series of antibodies and antibody Fab fragments were prepared as twofold dilutions in PBS/0.05% BSA. Binding was carried out for 10 minutes followed by 20 minutes dissociation. For all sensorgrams reference channel data was subtracted from the sample channel. The resulting multi-concentration series of binding curves were globally fit to a single binding site association/dissociation model.
(§3) Biotinylated peptides were used for kinetic binding measurements using nano-pore optical interferometry (FIGS. 7A-7D).

[1] = target: Fab fragments of alemtuzumab; assay: Antibody-peptide binding kinetics, SkiPro interferometer, Fab fragments
Method: as §1
Antibodies were prepared as follows. Alemtuzumab (Genzyme, Cambridge, Mass.) and rituximab (Genentech, San Francisco, Calif.) were obtained from the UCSD Cancer Center pharmacy. The antibodies were fluorescently labeled using the Zenon® R-Phycoerythrin Human IgG labeling kit, Zenon® Alexa Fluor® 488 Human IgG labeling and Zenon® Alexa Fluor® 488 protein labeling kits (Invitrogen, Carlsbad, Calif.). For kinetic studies, Fab fragments of each mAb were prepared by papain digestion using a Fab preparation kit (Thermo Fisher Scientific, Rockford, Ill.) as per manufacturers instructions.
as §2, §3

Substance: ACGSLSPSSCGGK (ACGSLSPSSCGGK(Biotin); disulfide 2-10 (inferred)) [pCp-1B]
CLL cell labeling by fluorescently labeled alemtuzumab with peptide added (primary CLL cells; peptide at 25,000 molar excess): largely abrogated

Kd (alemtuzumab): 163 nM
Koff (alemtuzumab): 0.00132 s⁻¹
Kon (alemtuzumab; biotinylated peptide on streptavidin surface): 8130 M⁻¹ s⁻¹
Kd [1]: 2050 nM
Koff [1]: 0.00505 s⁻¹
Kon [1]: 2460 M⁻¹ s⁻¹
Substance: ACGSLSPSSC [Cp-1]

Substance: rituximab [reference compound]
Staining of primary CLL cells by fluorescently labeled mAb (primary CLL cells): weak

Substance: alemtuzumab [reference compound]
Staining of primary CLL cells by fluorescently labeled mAb (primary CLL cells): robust staining

Substance: ACPYSNPSLCGGK (ACPYSNPSLCGGK(Biotin); disulfide 2-10 (inferred)) [pRTX-10B]
CLL cell labeling by fluorescently labeled rituximab with peptide added (primary CLL cells; peptide at 25,000 molar excess): largely abrogated
